{"source": "ChEMBL document CHEMBL1201862", "about": "“PubChem BioAssay data set” (2004)", "key": {"[1]": {"system": "Streptococcus sp. 'group A'", "test": "Streptococcus pyogenes SK(-)GAS viability under kanamycin – luminescence, BacTiterGlo, confirmation, counter-screen for streptokinase expression inhibitor project, dose response (AID 1900)", "type": "functional, organism-based"}, "Streptokinase A": {"molecular_target": "T1, Streptokinase A (Streptococcus pyogenes serotype M1, UniProt P10520)", "T1 sequence (P10520 whole entry)": "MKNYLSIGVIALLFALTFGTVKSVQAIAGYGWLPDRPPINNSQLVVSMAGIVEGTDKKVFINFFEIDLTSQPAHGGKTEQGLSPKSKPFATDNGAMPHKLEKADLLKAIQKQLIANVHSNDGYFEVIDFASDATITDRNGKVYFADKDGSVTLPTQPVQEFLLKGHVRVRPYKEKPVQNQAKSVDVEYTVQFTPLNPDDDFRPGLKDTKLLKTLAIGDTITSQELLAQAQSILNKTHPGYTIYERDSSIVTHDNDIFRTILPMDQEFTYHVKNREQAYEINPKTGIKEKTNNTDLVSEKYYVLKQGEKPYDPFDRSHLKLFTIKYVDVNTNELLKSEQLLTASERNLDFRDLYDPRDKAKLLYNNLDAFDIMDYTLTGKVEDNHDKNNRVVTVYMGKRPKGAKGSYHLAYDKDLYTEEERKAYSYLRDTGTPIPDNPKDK", "test": "viability-normalized secreted streptokinase activity reduction – plasminogen activation absorbance, OD405, dose response (AID 1914)", "type": "functional, Streptococcus pyogenes M1 GAS"}, "[2]": {"test": "Trypanosoma cruzi growth suppression in host cells – NIH3T3 host cells, beta-gal luminescence, confirmation (AID 2044);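 note: intracellular parasites grown in NIH/3T3 mouse fibroblasts as host cells; luminescent beta-galactosidase reporter signal from transgenic T. cruzi replicating inside host cells; inhibitors lower the luminescence signal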", "type": "functional, cell-based"}, "[3]": {"test": "NIH3T3 cell viability loss – ATP luminescence, mouse fibroblasts, counter-screen, dose response (AID 2010);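 note: cells exposed to compound for about 90 hours before reading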", "type": "functional, cell-based"}, "Streptococcus": {"system": "Streptococcus", "test": "GAS UMAA2166 growth inhibition – luminescence, BacTiterGlo, counter-screen for streptokinase expression inhibitor project, dose response (AID 1915);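 note: potency for reduction of bacterial viability or growth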", "type": "functional, organism-based"}, "[4]": {"molecular_target": "T2, ATP-dependent translocase ABCB1 (Homo sapiens, UniProt P08183)", "T2 sequence (P08183 whole entry)": "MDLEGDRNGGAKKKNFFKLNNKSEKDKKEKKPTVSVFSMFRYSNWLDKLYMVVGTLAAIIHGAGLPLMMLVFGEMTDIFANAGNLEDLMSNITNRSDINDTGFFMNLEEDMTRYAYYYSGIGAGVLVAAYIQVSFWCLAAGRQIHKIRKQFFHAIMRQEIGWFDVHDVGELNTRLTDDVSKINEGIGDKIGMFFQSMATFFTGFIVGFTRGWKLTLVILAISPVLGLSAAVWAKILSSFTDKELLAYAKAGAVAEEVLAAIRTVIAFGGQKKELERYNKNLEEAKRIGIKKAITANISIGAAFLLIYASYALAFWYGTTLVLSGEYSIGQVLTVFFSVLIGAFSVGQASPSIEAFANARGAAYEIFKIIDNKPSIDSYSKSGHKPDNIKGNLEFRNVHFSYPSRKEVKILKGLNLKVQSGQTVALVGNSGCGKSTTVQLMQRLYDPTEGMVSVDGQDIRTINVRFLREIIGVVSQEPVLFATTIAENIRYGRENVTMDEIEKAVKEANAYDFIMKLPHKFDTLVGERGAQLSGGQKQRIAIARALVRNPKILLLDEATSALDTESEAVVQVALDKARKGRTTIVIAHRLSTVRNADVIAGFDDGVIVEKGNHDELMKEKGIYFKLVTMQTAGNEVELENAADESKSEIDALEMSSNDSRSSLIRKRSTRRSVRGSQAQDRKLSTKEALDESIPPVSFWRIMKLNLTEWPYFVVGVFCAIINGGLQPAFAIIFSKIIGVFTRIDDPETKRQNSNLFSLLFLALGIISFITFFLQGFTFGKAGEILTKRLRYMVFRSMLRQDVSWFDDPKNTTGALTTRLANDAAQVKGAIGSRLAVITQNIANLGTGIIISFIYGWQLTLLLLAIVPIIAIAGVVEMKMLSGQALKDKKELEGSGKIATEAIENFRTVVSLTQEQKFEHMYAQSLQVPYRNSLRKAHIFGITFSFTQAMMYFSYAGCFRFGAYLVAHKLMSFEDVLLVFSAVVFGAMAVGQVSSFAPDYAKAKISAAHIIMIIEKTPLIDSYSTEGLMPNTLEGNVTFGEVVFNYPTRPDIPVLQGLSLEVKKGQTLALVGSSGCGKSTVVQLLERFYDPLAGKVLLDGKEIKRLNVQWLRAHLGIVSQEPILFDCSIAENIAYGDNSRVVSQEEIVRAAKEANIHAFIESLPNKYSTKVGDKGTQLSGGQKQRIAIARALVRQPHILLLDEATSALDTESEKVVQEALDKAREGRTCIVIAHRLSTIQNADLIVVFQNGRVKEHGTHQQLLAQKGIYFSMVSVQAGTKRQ", "test": "inhibition of P-gp mediated JC-1 efflux – Jurkat-DNR cells, flow cytometry, dose response (AID 1689)", "type": "functional"}, "[5]": {"molecular_target": "Broad substrate specificity ATP-binding cassette transporter ABCG2 (Homo sapiens, UniProt Q9UNQ0)", "sequence (Q9UNQ0 whole entry)": "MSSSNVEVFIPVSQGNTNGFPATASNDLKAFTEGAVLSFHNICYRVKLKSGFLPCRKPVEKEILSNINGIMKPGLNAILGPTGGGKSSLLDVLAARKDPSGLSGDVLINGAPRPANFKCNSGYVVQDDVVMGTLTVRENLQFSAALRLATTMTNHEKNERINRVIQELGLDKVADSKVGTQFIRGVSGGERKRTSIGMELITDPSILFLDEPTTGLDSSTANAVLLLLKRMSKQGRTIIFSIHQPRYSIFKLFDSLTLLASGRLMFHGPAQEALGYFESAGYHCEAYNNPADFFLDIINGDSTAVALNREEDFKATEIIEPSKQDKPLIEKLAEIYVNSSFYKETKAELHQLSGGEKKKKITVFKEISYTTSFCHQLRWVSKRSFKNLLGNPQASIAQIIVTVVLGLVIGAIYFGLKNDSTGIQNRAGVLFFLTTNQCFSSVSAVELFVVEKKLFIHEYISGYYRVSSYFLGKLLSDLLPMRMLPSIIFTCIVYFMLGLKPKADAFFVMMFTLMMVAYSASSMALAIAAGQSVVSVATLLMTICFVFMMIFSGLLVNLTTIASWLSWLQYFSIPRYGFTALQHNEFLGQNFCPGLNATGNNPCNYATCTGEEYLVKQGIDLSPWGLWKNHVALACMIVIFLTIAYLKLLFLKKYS", "test": "blockers of JC-1 export by ABCG2 – Ig-MXP3 cells, flow cytometry, dose response (AID 1690)", "type": "functional"}, "Estrogen receptor": {"molecular_target": "T3, Estrogen receptor (Homo sapiens, UniProt P03372)", "T3 sequence (P03372 whole entry)": "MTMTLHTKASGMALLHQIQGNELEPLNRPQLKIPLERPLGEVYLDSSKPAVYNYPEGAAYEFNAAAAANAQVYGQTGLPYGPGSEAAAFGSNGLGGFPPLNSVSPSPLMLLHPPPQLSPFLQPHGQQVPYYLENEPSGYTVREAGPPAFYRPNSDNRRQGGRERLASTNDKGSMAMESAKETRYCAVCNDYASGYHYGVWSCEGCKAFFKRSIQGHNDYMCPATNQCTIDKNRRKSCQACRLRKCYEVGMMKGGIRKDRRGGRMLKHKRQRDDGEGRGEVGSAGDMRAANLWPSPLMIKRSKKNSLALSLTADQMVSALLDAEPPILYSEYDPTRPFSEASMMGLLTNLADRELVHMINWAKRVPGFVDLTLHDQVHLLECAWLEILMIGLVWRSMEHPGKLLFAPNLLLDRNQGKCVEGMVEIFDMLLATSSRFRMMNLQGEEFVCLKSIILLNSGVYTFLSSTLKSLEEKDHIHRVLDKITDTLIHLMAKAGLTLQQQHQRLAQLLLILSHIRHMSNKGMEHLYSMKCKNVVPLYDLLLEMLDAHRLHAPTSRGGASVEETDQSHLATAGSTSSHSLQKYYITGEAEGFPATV"}, "[6]": {"molecular_target": "Arf-GAP with SH3 domain, ANK repeat and PH domain-containing protein 1 (Homo sapiens, UniProt Q9ULH1)", "sequence (Q9ULH1 whole entry, the tested form may be a part)": "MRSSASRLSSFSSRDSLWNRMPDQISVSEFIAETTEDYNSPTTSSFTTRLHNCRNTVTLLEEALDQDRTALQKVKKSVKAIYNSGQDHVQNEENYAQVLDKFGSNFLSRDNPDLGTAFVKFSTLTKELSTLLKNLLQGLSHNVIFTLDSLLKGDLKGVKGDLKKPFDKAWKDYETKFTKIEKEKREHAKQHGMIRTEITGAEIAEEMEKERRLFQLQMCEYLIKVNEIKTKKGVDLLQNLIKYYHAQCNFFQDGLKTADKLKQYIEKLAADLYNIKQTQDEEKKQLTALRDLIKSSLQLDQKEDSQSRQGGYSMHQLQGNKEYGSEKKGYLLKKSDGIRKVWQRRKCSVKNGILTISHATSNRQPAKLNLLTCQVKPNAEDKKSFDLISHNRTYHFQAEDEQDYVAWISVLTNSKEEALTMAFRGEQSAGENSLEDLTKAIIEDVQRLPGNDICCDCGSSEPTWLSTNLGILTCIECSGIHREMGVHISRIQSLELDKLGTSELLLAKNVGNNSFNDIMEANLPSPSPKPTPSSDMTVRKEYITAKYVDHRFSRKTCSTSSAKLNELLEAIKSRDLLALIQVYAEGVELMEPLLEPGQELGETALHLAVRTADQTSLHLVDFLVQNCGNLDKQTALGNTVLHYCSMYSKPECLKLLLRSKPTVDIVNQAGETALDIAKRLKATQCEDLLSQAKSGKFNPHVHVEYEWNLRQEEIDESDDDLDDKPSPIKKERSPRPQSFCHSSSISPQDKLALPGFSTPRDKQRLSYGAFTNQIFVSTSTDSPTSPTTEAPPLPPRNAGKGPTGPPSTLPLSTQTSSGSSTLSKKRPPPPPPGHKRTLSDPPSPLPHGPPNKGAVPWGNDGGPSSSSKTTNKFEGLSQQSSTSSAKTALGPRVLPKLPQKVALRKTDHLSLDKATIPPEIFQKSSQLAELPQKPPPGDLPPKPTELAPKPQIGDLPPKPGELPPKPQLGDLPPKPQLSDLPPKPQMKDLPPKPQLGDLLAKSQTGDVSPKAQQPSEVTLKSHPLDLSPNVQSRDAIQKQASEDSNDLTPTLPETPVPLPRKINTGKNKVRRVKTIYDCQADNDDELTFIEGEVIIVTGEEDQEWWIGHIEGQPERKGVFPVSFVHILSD", "type": "functional"}, "[7]": {"molecular_target": "T2, ATP-dependent translocase ABCB1", "test": "inhibition of BCRP-mediated JC-1 efflux – Ig-MXP3 cells, flow cytometry, set 2, dose response (AID 504566);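 note: flow cytometry median green fluorescence of retained JC-1 dye; potency of efflux pump inhibition measured as rising substrate retention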", "type": "functional", "details": "read-out: EC50_MICROM_"}, "[8]": {"molecular_target": "T2, ATP-dependent translocase ABCB1", "test": "P-gp JC-1 efflux blockade concentration-response – Jurkat-DNR cells, flow cytometry, set 2, dose response (AID 504569);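 note: potency of pump inhibitors that raise cellular JC-1 green fluorescence up to the nicardipine level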", "type": "functional", "details": "read-out: EC50_MICROM_"}, "[9]": {"test": "TNFa-induced NF-kB reporter signal decrease – HEK293 LMP1 reporter cells, dry powder, set 2, selectivity assay for EBV LMP1 NF-kB inhibitor project, dose response (AID 624369)", "type": "functional"}, "Paired box protein Pax-8": {"molecular_target": "Paired box protein Pax-8 (Homo sapiens, UniProt Q06710)", "sequence (Q06710 whole entry)": "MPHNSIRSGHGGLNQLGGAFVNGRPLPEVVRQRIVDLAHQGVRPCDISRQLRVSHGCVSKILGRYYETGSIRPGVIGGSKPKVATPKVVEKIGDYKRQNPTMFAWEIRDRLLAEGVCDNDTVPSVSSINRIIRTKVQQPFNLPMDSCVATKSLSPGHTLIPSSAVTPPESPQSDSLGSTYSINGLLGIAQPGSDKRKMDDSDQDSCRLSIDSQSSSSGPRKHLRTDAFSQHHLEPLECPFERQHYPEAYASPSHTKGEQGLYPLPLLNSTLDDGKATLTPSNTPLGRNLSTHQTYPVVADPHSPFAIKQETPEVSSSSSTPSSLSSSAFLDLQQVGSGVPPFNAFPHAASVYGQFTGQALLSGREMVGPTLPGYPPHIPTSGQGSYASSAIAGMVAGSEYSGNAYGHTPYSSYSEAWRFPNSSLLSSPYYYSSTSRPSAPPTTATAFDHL", "test": "PAX8 transcriptional activity inhibition in RMG-I – RMG-I cells, luciferase, cherry-pick, dose response (AID 687027);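 note: luciferase reporter driven by Pax8 target thyroperoxidase promoter measured by SteadyGlo luminescence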", "type": "functional, cell-based"}, "[10]": {"test": "OVCAR-3 cell viability loss – plate reader, dry powder samples, PAX8 inhibitor project, dose response (AID 743044)", "type": "functional, cell-based"}, "[11]": {"test": "OVCAR8 cell viability loss – plate reader, dry powder samples, PAX8 project, dose response (AID 743197)", "type": "functional, cell-based", "details": "OVCAR-8"}, "[12]": {"molecular_target": "Eukaryotic translation initiation factor 4E (Mus musculus, UniProt P63073)", "sequence (P63073 whole entry)": "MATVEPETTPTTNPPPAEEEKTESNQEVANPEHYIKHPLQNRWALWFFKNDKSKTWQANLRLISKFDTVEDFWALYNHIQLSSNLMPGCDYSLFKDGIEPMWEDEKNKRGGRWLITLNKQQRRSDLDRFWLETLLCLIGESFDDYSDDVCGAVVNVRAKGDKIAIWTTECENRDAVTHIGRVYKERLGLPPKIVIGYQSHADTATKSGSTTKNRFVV", "test": "blockers of eIF4G binding by eIF4E – biochemical, TR-FRET, dose response (AID 855);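 note: potency for disrupting eIF4E binding to eIF4GI seen as loss of FRET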", "type": "functional"}, "[13]": {"test": "Counterscreen for […] of the human trace amine associated receptor 1 (TAAR1): Fluorescence-based cell-based high throughput dose response assay to identify nonselective Ga16 agonists.", "type": "functional"}, "[14]": {"test": "Counterscreen for antagonists of the human trace amine associated receptor 1 (hTAAR1): Fluorescence-based cell-based high throughput dose response assay to identify nonselective Ga16 antagonists.", "type": "functional"}}, "note": "Calls of active or inactive are those of the source.", "data": [{"smiles": "COc1ccc(-c2nn(-c3ccccc3)cc2/C=C/C(=O)N2CCN(c3ccccn3)CC2)cc1", "values": [{"measurement": "EC50", "setting": "[1]", "value": "3.86 µM (active)"}, {"measurement": "EC50", "setting": "Streptokinase A", "value": "> 150 µM (not active)"}, {"measurement": "EC50", "setting": "[2]", "value": "2.34 µM (active)"}, {"measurement": "EC50", "setting": "[3]", "value": "> 60 µM (not active)"}, {"measurement": "EC50", "setting": "Streptococcus", "value": "39.3 µM (active)"}, {"measurement": "EC50", "setting": "[4]", "value": "1.64 µM (active)"}, {"measurement": "EC50", "setting": "[5]", "value": "0.41 µM (active)"}]}, {"smiles": "COc1ccc2c(c1)CC/C(=C\\c1ccc(OC)c(Cn3nc(C)cc3C)c1)C2=O", "values": [{"measurement": "IC50", "setting": "Estrogen receptor", "value": "> 50 µM (not active)"}, {"measurement": "IC50", "setting": "[6]", "value": "26.8 µM (inactive)"}]}, {"smiles": "COc1ccc(-c2cc3nc(C)cc(N4CCN(C(=O)c5cccnc5)CC4)n3n2)cc1", "values": [{"measurement": "EC50", "setting": "[7]", "value": "10.7 µM (active)"}, {"measurement": "EC50", "setting": "[8]", "value": "19 µM (inactive)"}]}, {"smiles": "COc1ccccc1C#Cc1ccc2c(c1)O[C@H](CN(C)Cc1cccnc1)[C@H](C)CN([C@@H](C)CO)S2(=O)=O", "values": [{"measurement": "AbsAC35", "setting": "[9]", "value": 38.33, "unit": "µM"}, {"measurement": "AC50", "setting": "Paired box protein Pax-8", "value": "7.51 µM (active)"}, {"measurement": "AC50", "setting": "[10]", "value": "21.4 µM (active)"}, {"measurement": "AC50", "setting": "[11]", "value": "32.2 µM (active)"}]}, {"smiles": "Cc1ccc(-n2c(C)cc(/C=N/Nc3ccc([N+](=O)[O-])cn3)c2C)cc1", "values": [{"measurement": "IC50", "setting": "[12]", "value": "> 64 µM (inactive)"}, {"measurement": "EC50", "setting": "[13]", "value": "> 29.9 µM (inactive)"}, {"measurement": "IC50", "setting": "[14]", "value": "> 29.9 µM (inactive)"}]}]}
